Data: PubChem BioAssay AID256 (DTP/NCI, 2004)
Several values for one entry are separate records, joined by “and”; a condition that tells them apart may be missing. Identical values can stand only once. Inconclusive results and toxic doses are left out.

Test system: CD2F1 mice, L1210 leukemia ip, survival T/C
Experiment: NCI In Vivo Anticancer Drug Screen. Data for tumor model L1210 Leukemia (intraperitoneal) in CD2F1 (CDF1) mice
Conditions: endpoint: mean survival time, higher = longer survival
In short: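 Tumor-bearing mice (transplanted tumor) were split into treated and vehicle control groups, and the measured endpoint of each treated group was divided by that of its vehicle controls.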

[1] = dose: 100.0 mg/kg/injection, schedule: Q01DX001 (ip), vehicle: saline with Tween-80
[2] = dose: 200.0 mg/kg/injection, schedule: Q01DX001 (ip), vehicle: saline with Tween-80
[3] = dose: 400.0 mg/kg/injection, schedule: Q01DX001 (ip), vehicle: saline with Tween-80

SMILES: N=c1ccn2c(n1)OC1C(OP(=O)(O)O)C(CO)OC12 (centres undefined)
- T/C (dose: 2.9 mg/kg/injection, schedule: Q01DX009 (ip), vehicle: saline): 101 % of control
- T/C (dose: 4.4 mg/kg/injection, schedule: Q03HX024 (oral), vehicle: water): 117 % of control
- T/C (dose: 5.8 mg/kg/injection, schedule: Q01DX009 (ip), vehicle: saline): 119 % of control
- T/C (dose: 8.0 mg/kg/injection, schedule: Q03HX008 (ip), vehicle: saline): 122 % of control
- T/C (dose: 8.0 mg/kg/injection, schedule: Q03HX024 (ip), vehicle: saline): 177 % of control
- T/C (dose: 8.7 mg/kg/injection, schedule: Q03HX024 (ip), vehicle: saline): 163 % of control
- T/C (dose: 11.6 mg/kg/injection, schedule: Q01DX009 (oral), vehicle: water): 120 % of control
- T/C (dose: 16.0 mg/kg/injection, schedule: Q03HX008 (oral), vehicle: saline): 120 % of control
- T/C (dose: 16.0 mg/kg/injection, schedule: Q03HX024 (ip), vehicle: saline): 225 % of control
- T/C (dose: 17.4 mg/kg/injection, schedule: Q03HX024 (ip), vehicle: saline): 217 % of control
- T/C (dose: 17.4 mg/kg/injection, schedule: Q03HX024 (oral), vehicle: water): 163 % of control
- T/C (dose: 23.2 mg/kg/injection, schedule: Q01DX009 (ip), vehicle: saline): 157 % of control
- T/C (dose: 23.2 mg/kg/injection, schedule: Q01DX009 (oral), vehicle: water): 122 % of control
- T/C (dose: 32.0 mg/kg/injection, schedule: Q01DX009 (ip), vehicle: saline): 159 % of control
- T/C (dose: 32.0 mg/kg/injection, schedule: Q01DX009 (oral), vehicle: saline): 111 % of control
- T/C (dose: 32.0 mg/kg/injection, schedule: Q03HX024 (ip), vehicle: saline): 283 % of control
- T/C (dose: 32.0 mg/kg/injection, schedule: Q03HX024 (oral), vehicle: saline): 177 % of control
- T/C (dose: 34.8 mg/kg/injection, schedule: Q03HX024 (ip), vehicle: saline): 229 % of control
- T/C (dose: 34.8 mg/kg/injection, schedule: Q03HX024 (oral), vehicle: water): 193 % of control
- T/C (dose: 46.4 mg/kg/injection, schedule: Q01DX009 (ip), vehicle: saline): 170 % of control
- T/C (dose: 64.0 mg/kg/injection, schedule: Q01DX009 (ip), vehicle: saline): 169 % of control
- T/C (dose: 64.0 mg/kg/injection, schedule: Q03HX024 (ip), vehicle: saline): 418 % of control
- T/C (dose: 64.0 mg/kg/injection, schedule: Q03HX024 (oral), vehicle: saline): 231 % of control
- T/C (dose: 69.6 mg/kg/injection, schedule: Q03HX024 (ip), vehicle: saline): 228 % of control
- T/C (dose: 69.6 mg/kg/injection, schedule: Q03HX024 (oral), vehicle: water): 291 % of control
- T/C (dose: 92.8 mg/kg/injection, schedule: Q01DX009 (ip), vehicle: saline): 195 % of control
- T/C (dose: 92.8 mg/kg/injection, schedule: Q01DX009 (oral), vehicle: water): 153 % of control
- T/C (dose: 128.0 mg/kg/injection, schedule: Q01DX001 (ip), vehicle: saline): 112 % of control
- T/C (dose: 128.0 mg/kg/injection, schedule: Q01DX001 (oral), vehicle: saline): 104 % of control
- T/C (dose: 128.0 mg/kg/injection, schedule: Q01DX009 (ip), vehicle: saline): 200 % of control
- T/C (dose: 128.0 mg/kg/injection, schedule: Q01DX009 (oral), vehicle: saline): 166 % of control
- T/C (dose: 128.0 mg/kg/injection, schedule: Q03HX008 (oral), vehicle: saline): 157 % of control
- T/C (dose: 128.0 mg/kg/injection, schedule: Q03HX024 (oral), vehicle: saline): 231 % of control
- T/C (dose: 128.0 mg/kg/injection, schedule: Q04DX003 (ip), vehicle: saline): 154 % of control
- T/C (dose: 128.0 mg/kg/injection, schedule: Q04DX003 (oral), vehicle: saline): 111 % of control
- T/C (dose: 139.2 mg/kg/injection, schedule: Q03HX024 (ip), vehicle: saline): 221 % of control
- T/C (dose: 139.2 mg/kg/injection, schedule: Q03HX024 (oral), vehicle: water): 273 % of control
- T/C (dose: 185.6 mg/kg/injection, schedule: Q01DX009 (oral), vehicle: water): 197 % of control
- T/C (dose: 256.0 mg/kg/injection, schedule: Q01DX001 (ip), vehicle: saline): 122 % of control
- T/C (dose: 256.0 mg/kg/injection, schedule: Q01DX001 (oral), vehicle: saline): 107 % of control
- T/C (dose: 256.0 mg/kg/injection, schedule: Q01DX009 (oral), vehicle: saline): 201 % of control
- T/C (dose: 256.0 mg/kg/injection, schedule: Q04DX003 (ip), vehicle: saline): 180 % of control
- T/C (dose: 278.4 mg/kg/injection, schedule: Q03HX024 (ip), vehicle: saline): 86 % of control
- T/C (dose: 371.2 mg/kg/injection, schedule: Q01DX009 (oral), vehicle: water): 174 % of control
- T/C (dose: 512.0 mg/kg/injection, schedule: Q04DX003 (ip), vehicle: saline): 219 % of control
- T/C (dose: 512.0 mg/kg/injection, schedule: Q04DX003 (oral), vehicle: saline): 173 % of control
- T/C (dose: 1024.0 mg/kg/injection, schedule: Q01DX001 (ip), vehicle: saline): 154 % of control
- T/C (dose: 1024.0 mg/kg/injection, schedule: Q04DX003 (ip), vehicle: saline): 359 % of control
- T/C (dose: 1024.0 mg/kg/injection, schedule: Q04DX003 (oral), vehicle: saline): 220 % of control

SMILES: CCOC(=O)Nc1cc(F)ccc1F
- T/C (dose: 100.0 mg/kg/injection, schedule: Q01DX009 (ip), vehicle: other): 103 % of control
- T/C (dose: 200.0 mg/kg/injection, schedule: Q01DX009 (ip), vehicle: other): 94 % of control
- T/C (dose: 400.0 mg/kg/injection, schedule: Q01DX009 (ip), vehicle: other): 95 % of control

SMILES: O=C(O)c1[nH]c(=O)[nH]c(=O)c1F
- T/C (dose: 1.25 mg/kg/injection, schedule: Q01DX009 (ip), vehicle: saline): 101 % of control and 109 % of control
- T/C (dose: 2.5 mg/kg/injection, schedule: Q01DX007 (ip), vehicle: Klucel (hydroxypropylcellulose) (HPC)): 119 % of control
- T/C (dose: 2.5 mg/kg/injection, schedule: Q01DX009 (ip), vehicle: saline): 123 % of control
- T/C (dose: 2.5 mg/kg/injection, schedule: Q03DX003 (ip), vehicle: Klucel (hydroxypropylcellulose) (HPC)): 110 % of control
- T/C (dose: 2.5 mg/kg/injection, schedule: Q04DX003 (ip), vehicle: Klucel (hydroxypropylcellulose) (HPC)): 103 % of control
- T/C (dose: 5.0 mg/kg/injection, schedule: Q01DX007 (ip), vehicle: Klucel (hydroxypropylcellulose) (HPC)): 165 % of control
- T/C (dose: 5.0 mg/kg/injection, schedule: Q01DX009 (ip), vehicle: saline): 168 % of control
- T/C (dose: 5.0 mg/kg/injection, schedule: Q03DX003 (ip), vehicle: Klucel (hydroxypropylcellulose) (HPC)): 122 % of control
- T/C (dose: 5.0 mg/kg/injection, schedule: Q04DX003 (ip), vehicle: Klucel (hydroxypropylcellulose) (HPC)): 112 % of control
- T/C (dose: 10.0 mg/kg/injection, schedule: Q01DX007 (ip), vehicle: Klucel (hydroxypropylcellulose) (HPC)): 119 % of control
- T/C (dose: 10.0 mg/kg/injection, schedule: Q04DX003 (ip), vehicle: Klucel (hydroxypropylcellulose) (HPC)): 117 % of control

SMILES: CCOc1ccc(Nc2cc(=O)[nH]c(=O)[nH]2)cc1
- T/C [1]: 95 % of control
- T/C [2]: 93 % of control
- T/C [3]: 95 % of control

SMILES: Cn1c(=O)c2[nH]c(-c3ccccc3[N+](=O)[O-])nc2n(C)c1=O
- T/C (dose: 12.5 mg/kg/injection, schedule: Q01DX005 (ip), vehicle: other): 97 % of control
- T/C (dose: 25.0 mg/kg/injection, schedule: Q01DX005 (ip), vehicle: other): 94 % of control
- T/C (dose: 50.0 mg/kg/injection, schedule: Q01DX005 (ip), vehicle: other): 90 % of control
- T/C (dose: 100.0 mg/kg/injection, schedule: Q01DX005 (ip), vehicle: other): 96 % of control
- T/C (dose: 200.0 mg/kg/injection, schedule: Q01DX005 (ip), vehicle: other): 94 % of control

SMILES: CCOC(=O)C12CCCCC1=CC1(CC2)SCCS1 (centres undefined)
- T/C (dose: 100.0 mg/kg/injection, schedule: Q04DX003 (ip), vehicle: acetone): 93 % of control
- T/C (dose: 200.0 mg/kg/injection, schedule: Q04DX003 (ip), vehicle: acetone): 91 % of control
- T/C (dose: 400.0 mg/kg/injection, schedule: Q04DX003 (ip), vehicle: acetone): 86 % of control

SMILES: CCCCCCCCCCCCCCCCCCCCCC(=O)OC
- T/C (dose: 100.0 mg/kg/injection, schedule: Q01DX009 (ip), vehicle: saline with Tween-80): 102 % of control
- T/C (dose: 100.0 mg/kg/injection, schedule: Q04DX003 (ip), vehicle: saline with Tween-80): 89 % of control
- T/C (dose: 200.0 mg/kg/injection, schedule: Q01DX009 (ip), vehicle: saline with Tween-80): 103 % of control
- T/C (dose: 200.0 mg/kg/injection, schedule: Q04DX003 (ip), vehicle: saline with Tween-80): 90 % of control
- T/C (dose: 400.0 mg/kg/injection, schedule: Q01DX009 (ip), vehicle: saline with Tween-80): 100 % of control
- T/C (dose: 400.0 mg/kg/injection, schedule: Q04DX003 (ip), vehicle: saline with Tween-80): 87 % of control

SMILES: O=Cc1ccccc1O
- T/C (dose: 100.0 mg/kg/injection, schedule: Q04DX002 (ip), vehicle: saline): 93 % of control

SMILES: O=[N+]([O-])c1ccccc1-c1ccc(Cl)cc1
- T/C [1]: 88 % of control
- T/C [2]: 91 % of control
- T/C [3]: 92 % of control
